Measured values as given in patent publication US10206399B2, “Herbicidal composition comprising uracil compound as active ingredient” (Dongbu Farm Hannong Co., Ltd., priority 2012, dated 2019).
Where two headings read alike, the source gives them in different places.

Legend:
Abutilon theophrasti = assay: whole plant or invertebrate
Excerpt: (§1) X is % damage by uracil compound (a) of formula 1 at the rate of application of p kg/ha; Y is % damage by conventional herbicidal compound (b) at the rate of application of q kg/ha; and E is the expected damage caused by compounds (a) and (b) at a rate of application of p and q kg/ha.
(§2) The expected activity for a given combination of two herbicides can be calculated using equation 1 above.

Aeschynomene indica = assay: whole plant or invertebrate
Excerpt: as §1, §2

Xanthium spinosum = assay: whole plant or invertebrate
Excerpt: as §1, §2

Digitaria sanguinalis = details: for plant mortality, measured value: Digitaria sanguinalis; for Digitaria sanguinalis mortality, measured value: 20 days after treatment
Excerpt: as §1, §2

Echinochloa crus = details: for plant mortality, measured value: Echinochloa crus; for Echinochloa crus mortality, measured value: 20 days after treatment
Excerpt: as §1, §2

[1] = read-out: Data (measured value) Abutilon theophrasti, 25 g/ha
[2] = read-out: Data (measured value) Abutilon theophrasti, 50 g/ha
[3] = read-out: Data (measured value) Abutilon theophrasti, 100 g/ha
[4] = read-out: plant mortality, measured value, 25 g/ha
[5] = read-out: plant mortality, measured value, 50 g/ha
[6] = read-out: plant mortality, measured value, 100 g/ha
[7] = read-out: Data (measured value) Aeschynomene indica, 25 g/ha
[8] = read-out: Data (measured value) Aeschynomene indica, 50 g/ha
[9] = read-out: Data (measured value) Aeschynomene indica, 100 g/ha
[10] = read-out: Data (measured value) Xanthium spinosum, 25 g/ha
[11] = read-out: Data (measured value) Xanthium spinosum, 50 g/ha
[12] = read-out: Data (measured value) Xanthium spinosum, 100 g/ha
[13] = read-out: plant mortality, measured value, 125 g/ha
[14] = read-out: plant mortality, measured value, 250 g/ha
[15] = read-out: plant mortality, measured value, 500 g/ha
[16] = 480 h, read-out: Abutilon theophrasti mortality, measured value
[17] = read-out: plant mortality, measured value, 75 g/ha
[18] = read-out: plant mortality, measured value, 150 g/ha
[19] = read-out: plant mortality, measured value, 300 g/ha
[20] = 480 h, read-out: Aeschynomene indica mortality, measured value
[21] = 480 h, read-out: Xanthium spinosum mortality, measured value

## CCSC(C)CC1CC(=O)C(/C(CC)=N/OC/C=C/Cl)=C(O)C1 (stereo not shown) [Clethodim]
Abutilon theophrasti; [1]
  pest or weed control at 25 g/ha: 0%
Abutilon theophrasti; [2]
  pest or weed control at 50 g/ha: 0%
Abutilon theophrasti; [3]
  pest or weed control at 100 g/ha: 0%
Abutilon theophrasti; [4]
  pest or weed control at 25 g/ha: 0%
Abutilon theophrasti; [5]
  pest or weed control at 50 g/ha: 0%
Abutilon theophrasti; [6]
  pest or weed control at 100 g/ha: 0%
Aeschynomene indica; [7]
  pest or weed control at 25 g/ha: 0%
Aeschynomene indica; [8]
  pest or weed control at 50 g/ha: 0%
Aeschynomene indica; [9]
  pest or weed control at 100 g/ha: 0%
Aeschynomene indica; [4]
  pest or weed control at 25 g/ha: 0%
Aeschynomene indica; [5]
  pest or weed control at 50 g/ha: 0%
Aeschynomene indica; [6]
  pest or weed control at 100 g/ha: 0%
Xanthium spinosum; [10]
  pest or weed control at 25 g/ha: 0%
Xanthium spinosum; [11]
  pest or weed control at 50 g/ha: 0%
Xanthium spinosum; [12]
  pest or weed control at 100 g/ha: 0%
Xanthium spinosum; [4]
  pest or weed control at 25 g/ha: 0%
Xanthium spinosum; [5]
  pest or weed control at 50 g/ha: 0%
Xanthium spinosum; [6]
  pest or weed control at 100 g/ha: 0%
Digitaria sanguinalis; 25 g/ha
  Data (measured value) Digitaria sanguinalis: 6
  plant mortality, measured value: 6
Digitaria sanguinalis; 50 g/ha
  Data (measured value) Digitaria sanguinalis: 19
  plant mortality, measured value: 19
Digitaria sanguinalis; 100 g/ha
  Data (measured value) Digitaria sanguinalis: 45
  plant mortality, measured value: 45
Echinochloa crus; 25 g/ha
  Data (measured value) Echinochloa crus: 11
  plant mortality, measured value: 11
Echinochloa crus; 50 g/ha
  Data (measured value) Echinochloa crus: 31
  plant mortality, measured value: 31
Echinochloa crus; 100 g/ha
  Data (measured value) Echinochloa crus: 65
  plant mortality, measured value: 65

## CCc1cnc(C2=NC(C)(C(C)C)C(=O)N2)c(C(=O)O)c1 (stereo not shown) [Imazethapyr]
Abutilon theophrasti; [1]
  pest or weed control at 25 g/ha: 9%
Abutilon theophrasti; [2]
  pest or weed control at 50 g/ha: 24%
Abutilon theophrasti; [3]
  pest or weed control at 100 g/ha: 58%
Aeschynomene indica; [7]
  pest or weed control at 25 g/ha: 11%
Aeschynomene indica; [8]
  pest or weed control at 50 g/ha: 25%
Aeschynomene indica; [9]
  pest or weed control at 100 g/ha: 54%
Xanthium spinosum; [10]
  pest or weed control at 25 g/ha: 9%
Xanthium spinosum; [11]
  pest or weed control at 50 g/ha: 20%
Xanthium spinosum; [12]
  pest or weed control at 100 g/ha: 47%
Digitaria sanguinalis; 25 g/ha
  Data (measured value) Digitaria sanguinalis: 11
Digitaria sanguinalis; 50 g/ha
  Data (measured value) Digitaria sanguinalis: 26
Digitaria sanguinalis; 100 g/ha
  Data (measured value) Digitaria sanguinalis: 62
Echinochloa crus; 25 g/ha
  Data (measured value) Echinochloa crus: 11
Echinochloa crus; 50 g/ha
  Data (measured value) Echinochloa crus: 26
Echinochloa crus; 100 g/ha
  Data (measured value) Echinochloa crus: 53

## CC(C)N1C(=O)c2ccccc2NS1(=O)=O [Bentazone]
Abutilon theophrasti; [13]
  pest or weed control at 125 g/ha: 9%
Abutilon theophrasti; [14]
  pest or weed control at 250 g/ha: 22%
Abutilon theophrasti; [15]
  pest or weed control at 500 g/ha: 49%
Aeschynomene indica; [13]
  pest or weed control at 125 g/ha: 10%
Aeschynomene indica; [14]
  pest or weed control at 250 g/ha: 22%
Aeschynomene indica; [15]
  pest or weed control at 500 g/ha: 52%
Xanthium spinosum; [13]
  pest or weed control at 125 g/ha: 8%
Xanthium spinosum; [14]
  pest or weed control at 250 g/ha: 18%
Xanthium spinosum; [15]
  pest or weed control at 500 g/ha: 45%
Digitaria sanguinalis; 125 g/ha
  plant mortality, measured value: 0
Digitaria sanguinalis; 250 g/ha
  plant mortality, measured value: 0
Digitaria sanguinalis; 500 g/ha
  plant mortality, measured value: 0
Echinochloa crus; 125 g/ha
  plant mortality, measured value: 0
Echinochloa crus; 250 g/ha
  plant mortality, measured value: 0
Echinochloa crus; 500 g/ha
  plant mortality, measured value: 0

## COc1cc(OC)nc(Oc2cccc(Oc3nc(OC)cc(OC)n3)c2C(=O)O)n1 [Bispyribac-sodium]
Abutilon theophrasti; read-out: Data (measured value) Abutilon theophrasti, 15 g/ha
  pest or weed control at 15 g/ha: 31%
Abutilon theophrasti; read-out: Data (measured value) Abutilon theophrasti, 30 g/ha
  pest or weed control at 30 g/ha: 62%
Aeschynomene indica; read-out: Data (measured value) Aeschynomene indica, 15 g/ha
  pest or weed control at 15 g/ha: 23%
Aeschynomene indica; read-out: Data (measured value) Aeschynomene indica, 30 g/ha
  pest or weed control at 30 g/ha: 49%
Xanthium spinosum; read-out: Data (measured value) Xanthium spinosum, 15 g/ha
  pest or weed control at 15 g/ha: 27%
Xanthium spinosum; read-out: Data (measured value) Xanthium spinosum, 30 g/ha
  pest or weed control at 30 g/ha: 58%
Digitaria sanguinalis; 15 g/ha
  Data (measured value) Digitaria sanguinalis: 20
Digitaria sanguinalis; 30 g/ha
  Data (measured value) Digitaria sanguinalis: 47
Echinochloa crus; 15 g/ha
  Data (measured value) Echinochloa crus: 23
Echinochloa crus; 30 g/ha
  Data (measured value) Echinochloa crus: 45

## CP(=O)(O)CCC(N)C(=O)O (stereo not shown) [Glufosinate, reference compound]
Abutilon theophrasti; [16]
  mortality at 75 g/ha: 7%
  mortality at 150 g/ha: 25%
  mortality at 300 g/ha: 49%
Abutilon theophrasti; [17]
  pest or weed control at 75 g/ha: 7%
Abutilon theophrasti; [18]
  pest or weed control at 150 g/ha: 25%
Abutilon theophrasti; [19]
  pest or weed control at 300 g/ha: 49%
Aeschynomene indica; [20]
  mortality at 75 g/ha: 5%
  mortality at 150 g/ha: 18%
  mortality at 300 g/ha: 46%
Aeschynomene indica; [17]
  pest or weed control at 75 g/ha: 5%
Aeschynomene indica; [18]
  pest or weed control at 150 g/ha: 18%
Aeschynomene indica; [19]
  pest or weed control at 300 g/ha: 46%
Xanthium spinosum; [21]
  mortality at 75 g/ha: 13%
  mortality at 150 g/ha: 25%
  mortality at 300 g/ha: 56%
Xanthium spinosum; [17]
  pest or weed control at 75 g/ha: 13%
Xanthium spinosum; [18]
  pest or weed control at 150 g/ha: 25%
Xanthium spinosum; [19]
  pest or weed control at 300 g/ha: 56%
Digitaria sanguinalis; 75 g/ha
  Digitaria sanguinalis mortality, measured value: 11%
  plant mortality, measured value: 11
Digitaria sanguinalis; 150 g/ha
  Digitaria sanguinalis mortality, measured value: 27%
  plant mortality, measured value: 27
Digitaria sanguinalis; 300 g/ha
  Digitaria sanguinalis mortality, measured value: 57%
  plant mortality, measured value: 57
Echinochloa crus; 75 g/ha
  Echinochloa crus mortality, measured value: 15%
  plant mortality, measured value: 15
Echinochloa crus; 150 g/ha
  Echinochloa crus mortality, measured value: 29%
  plant mortality, measured value: 29
Echinochloa crus; 300 g/ha
  Echinochloa crus mortality, measured value: 60%
  plant mortality, measured value: 60
